Data as given in US6451576B1, “Sesquiterpene synthases from grand fir (Abies grandis), and methods of use” (Washington State University Research Foundation, priority 1998, dated 2002).

Columns and labels:
[1] = target: T1, γ-humulene synthase (SEQ ID No:24) (Abies grandis, UniProt O64405); test: Kinetic parameters, metal ion requirement and substrate specificity of recombinant γ-humulene synthase; format: biochemical
T1 construct: For further subcloning of the amplified, full-length cDNA into the pSBETa vector for high-level expression, the pGAG5 insert was amplified; made in house; host or cells: E. coli XL1-Blue/pGAG5 or E. coli BL21(DE3)/pSBAG5
T1 sequence (O64405 1-593): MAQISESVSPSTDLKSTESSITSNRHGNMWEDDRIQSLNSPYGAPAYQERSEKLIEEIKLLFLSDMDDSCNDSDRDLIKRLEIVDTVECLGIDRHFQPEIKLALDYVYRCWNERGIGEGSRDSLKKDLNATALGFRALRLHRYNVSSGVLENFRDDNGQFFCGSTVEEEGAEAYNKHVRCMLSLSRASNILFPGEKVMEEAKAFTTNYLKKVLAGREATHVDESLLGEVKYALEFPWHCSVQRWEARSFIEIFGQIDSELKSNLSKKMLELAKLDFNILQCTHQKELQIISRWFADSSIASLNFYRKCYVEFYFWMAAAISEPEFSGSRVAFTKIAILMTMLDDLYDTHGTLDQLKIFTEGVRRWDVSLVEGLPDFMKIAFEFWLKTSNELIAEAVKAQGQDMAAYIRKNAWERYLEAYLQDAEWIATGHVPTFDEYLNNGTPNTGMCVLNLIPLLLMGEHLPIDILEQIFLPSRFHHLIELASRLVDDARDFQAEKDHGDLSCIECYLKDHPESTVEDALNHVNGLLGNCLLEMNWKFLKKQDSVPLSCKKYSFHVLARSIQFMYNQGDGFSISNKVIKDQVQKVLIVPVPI
Method: (§1) The assay for recombinant sesquiterpene synthase (cyclase) activity was performed in 1 ml of buffer (extraction buffer without MnCl2 or the polymeric adsorbents) containing 3.5 μM [1-^3H]farnesyl diphosphate and the total protein extracted from a 5 ml bacterial culture to produce 10^5-10^6 dpm of product in 2 h at 31° C. The incubation mixture was overlaid with 1 ml pentane to trap volatile products. After incubation, the reaction mixture was extracted with pentane (3×1 ml) and the combined extract was passed through a MgSO4-silica gel column to provide the terpene hydrocarbon fractions as before. The columns were subsequently eluted with 3×1 ml of ether to collect any oxygenated products, and an aliquot of each fraction was taken for liquid scintillation counting to determine conversion rate. The monoterpene synthase and diterpene synthase activity assays were similarly performed as described in detail elsewhere (LaFever, R. E., et al., (1994) Arch. Biochem. Biophys. 313, 139-149; Bohlmann, J., et al., (1997) J. Biol. Chem. 272, 21784-21792; Lewinsohn, E., et al., (1991) Plant Physiol. 96, 38-43).
(§2) The substrate specificity and other kinetic. parameters of γ-humulene synthase (SEQ ID No:24) and δ-selinene synthase (SEQ ID No:20) were investigated in order to confirm the identification and classification of these enzymes. […] Neither of these sesquiterpene synthases requires K^+ or other monovalent cation for activity.
(§3) Substrate specificity of δ-selinene synthase (SEQ ID No:20) and γ-humulene synthase (SEQ ID No:24) was evaluated by comparing farnesyl diphosphate (C15) to geranyl diphosphate (C10) and geranylgeranyl diphosphate (C20) at saturation as precursors of the respective terpene olefins. […] The identities of the monoterpene products produced by the sesquiterpene synthases were determined by GLC-MS and are set forth in FIG. 4.

[2] = target: T2, δ-selinene synthase (SEQ ID No:20) (Abies grandis, UniProt O64404); test: Kinetic parameters, metal ion requirement and substrate specificity of recombinant δ-selinene synthase; format: biochemical
T2 construct: made in house; host or cells: E. coli XL1-Blue/pGAG4 or E. coli BL21(DE3)/pSBAG4
T2 sequence (O64404 1-581): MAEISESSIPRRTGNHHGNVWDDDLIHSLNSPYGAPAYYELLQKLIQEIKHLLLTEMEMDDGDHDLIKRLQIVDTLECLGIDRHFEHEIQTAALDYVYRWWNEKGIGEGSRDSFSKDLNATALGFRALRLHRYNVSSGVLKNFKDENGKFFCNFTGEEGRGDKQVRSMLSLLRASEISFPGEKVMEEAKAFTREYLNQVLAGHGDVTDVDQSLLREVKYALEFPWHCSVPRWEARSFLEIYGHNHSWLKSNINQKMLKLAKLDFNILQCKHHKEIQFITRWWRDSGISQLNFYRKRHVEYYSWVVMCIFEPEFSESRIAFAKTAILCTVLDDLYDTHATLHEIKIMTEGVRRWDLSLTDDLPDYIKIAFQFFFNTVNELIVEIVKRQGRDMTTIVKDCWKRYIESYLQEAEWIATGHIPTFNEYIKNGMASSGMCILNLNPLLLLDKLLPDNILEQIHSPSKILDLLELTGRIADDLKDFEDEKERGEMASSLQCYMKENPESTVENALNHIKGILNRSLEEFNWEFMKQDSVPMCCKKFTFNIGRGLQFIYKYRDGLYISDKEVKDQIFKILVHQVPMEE
Method: as §1, §2, §3

Q: With `CC(C)=CCC/C(C)=C/COP(=O)(O)OP(=O)(O)O` [geranyl diphosphate, reference compound] as the molecule, how does the “olefin formation from substrate at saturation, compared with farnesyl diphosphate” value [1] read?
A: Its value is “roughly half the rate”.

Q: What about the “olefin formation from substrate at saturation, compared with farnesyl diphosphate” value [2] of the same molecule?
A: The value was “roughly half the rate”.

Q: Which “olefin formation from substrate at saturation, compared with farnesyl diphosphate” value [1] does the source give for `CC(C)=CCC/C(C)=C/CC/C(C)=C/CC/C(C)=C/COP(=O)(O)OP(=O)(O)O` [geranylgeranyl diphosphate, reference compound] here?
A: The value was “failed to generate detectable olefinic products”.

Q: What about the “olefin formation from substrate at saturation, compared with farnesyl diphosphate” value [2] of the same molecule?
A: Its value is “failed to generate detectable olefinic products”.
